Results from ChEMBL document CHEMBL1201862, “PubChem BioAssay data set” (2004).
Activity calls are given as the source filed them.

Legend:
[1] = A Cell Based Secondary Assay To Explore Cytotoxicity of Compounds that Sensitize Mycobacterium Tuberculosis to Beta-Lactam Antibiotics.; assay type: functional
[2] = Artemis endonuclease inhibitor potency, dose response, biochemical, fluorescence intensity (AID 720701); assay type: functional;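 also: Artemis endonuclease enzyme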
[3] = P. falciparum Dd2 growth inhibitors, dose response, SYBR Green, cherry-picked samples (AID 1159567); assay type: functional, cell-based
[4] = HepG2 cell cytotoxicity, dose response, cytotoxicity control, cherry-picked samples (AID 1159577); assay type: functional, cell-based
[5] = target: Mitogen-activated protein kinase 10 (Homo sapiens, UniProt P53779); assay: Dose response biochemical screening assay for inhibitors of c-Jun N-Terminal Kinase 3 (JNK3). [Related pubchem assays: 746 ]
fMet-Leu-Phe receptor = target: T1, fMet-Leu-Phe receptor (Homo sapiens, UniProt P21462); assay: FPR ligands, dose response (AID 519); assay type: functional
T1 sequence (P21462 whole entry): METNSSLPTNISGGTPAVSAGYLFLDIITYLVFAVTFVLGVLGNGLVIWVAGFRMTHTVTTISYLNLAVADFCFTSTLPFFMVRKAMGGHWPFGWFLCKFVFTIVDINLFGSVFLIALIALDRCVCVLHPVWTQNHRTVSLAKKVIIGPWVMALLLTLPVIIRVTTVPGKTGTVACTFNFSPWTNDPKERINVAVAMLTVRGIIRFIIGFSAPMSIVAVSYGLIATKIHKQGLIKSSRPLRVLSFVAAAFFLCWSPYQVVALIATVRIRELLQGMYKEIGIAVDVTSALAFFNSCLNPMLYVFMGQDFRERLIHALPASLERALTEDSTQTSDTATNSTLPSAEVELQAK

[6] = P. falciparum 3D7-ScDHODH growth inhibitors, dose response, SYBR Green, dry powder samples (AID 1159570); assay type: functional, cell-based;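 also: parasite growth measured after 72 hours of compound exposure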
[7] = HepG2 cell cytotoxicity, dose response, cytotoxicity control, plate reader, dry powder samples (AID 1159569); assay type: functional, cell-based;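 also: inhibitor potency with signal falling toward the positive control level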
[8] = P. falciparum Dd2 growth inhibitors, dose response, SYBR Green, dry powder samples (AID 1159566); assay type: functional, cell-based;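 also: potency for growth inhibition with lower SYBR green DNA signal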
[9] = P. falciparum ATP4 D1247Y mutant growth inhibitors, dose response, NITD609-resistant line, SYBR Green, dry powder (AID 1159571); assay type: functional, cell-based;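 also: parasites synchronized at ring stage by sorbitol before testing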
[10] = inhibitors of PGC1a acetylation in cells, dose response, cell-based, cherry-picked samples (AID 720514); assay type: functional;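 also: potency may reflect raised or lowered acetylation signal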
[11] = Luminescence-based cell-based high throughput dose response assay to identify activators of the DAF-12 from the parasite S. stercoralis (ssDAF-12).; assay type: functional
[12] = target: T2, Oxysterols receptor LXR-beta (Homo sapiens, UniProt P55055); assay: LXR agonists, Gal4 luciferase reporter, dose response, counter-screen for ssDAF-12 agonist project, cell-based, luminescence, HEK293, S. stercoralis campaign (AID 720737); assay type: functional; settings: read-out: IC50 (the source's name)
T2 sequence (P55055 whole entry): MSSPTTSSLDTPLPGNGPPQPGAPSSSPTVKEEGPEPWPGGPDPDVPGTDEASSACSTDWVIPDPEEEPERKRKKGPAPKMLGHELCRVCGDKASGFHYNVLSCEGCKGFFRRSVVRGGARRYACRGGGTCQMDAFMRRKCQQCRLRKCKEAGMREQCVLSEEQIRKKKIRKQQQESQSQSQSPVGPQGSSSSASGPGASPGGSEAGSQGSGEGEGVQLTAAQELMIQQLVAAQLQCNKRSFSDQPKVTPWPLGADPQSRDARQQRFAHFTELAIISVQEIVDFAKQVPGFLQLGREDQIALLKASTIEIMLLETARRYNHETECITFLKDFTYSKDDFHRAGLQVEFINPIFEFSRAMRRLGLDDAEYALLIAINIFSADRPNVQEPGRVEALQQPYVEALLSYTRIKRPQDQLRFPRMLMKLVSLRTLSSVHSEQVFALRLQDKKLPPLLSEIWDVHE

[13] = P. falciparum late gametocyte killing, dose response, luminescence (AID 1117278); assay type: functional, cell-based;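 also: gametocytes exposed to compound for 24 hours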
[14] = Jurkat T cell cytotoxicity, dose response, cytotoxicity control for P. falciparum gametocyte viability project, luminescence (AID 1117277); assay type: functional, cell-based;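 also: potency reflects loss of cellular ATP meaning fewer viable cells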
[15] = target: T3, Rac GTPase-activating protein 1 (Homo sapiens, UniProt Q9H0H5); assay: MgcRacGAP GTPase-activating activity inhibitors, confirmation, biochemical, ADP Hunter fluorescence, primary and confirmatory (AID 624330); assay type: functional
T3 sequence (Q9H0H5 whole entry): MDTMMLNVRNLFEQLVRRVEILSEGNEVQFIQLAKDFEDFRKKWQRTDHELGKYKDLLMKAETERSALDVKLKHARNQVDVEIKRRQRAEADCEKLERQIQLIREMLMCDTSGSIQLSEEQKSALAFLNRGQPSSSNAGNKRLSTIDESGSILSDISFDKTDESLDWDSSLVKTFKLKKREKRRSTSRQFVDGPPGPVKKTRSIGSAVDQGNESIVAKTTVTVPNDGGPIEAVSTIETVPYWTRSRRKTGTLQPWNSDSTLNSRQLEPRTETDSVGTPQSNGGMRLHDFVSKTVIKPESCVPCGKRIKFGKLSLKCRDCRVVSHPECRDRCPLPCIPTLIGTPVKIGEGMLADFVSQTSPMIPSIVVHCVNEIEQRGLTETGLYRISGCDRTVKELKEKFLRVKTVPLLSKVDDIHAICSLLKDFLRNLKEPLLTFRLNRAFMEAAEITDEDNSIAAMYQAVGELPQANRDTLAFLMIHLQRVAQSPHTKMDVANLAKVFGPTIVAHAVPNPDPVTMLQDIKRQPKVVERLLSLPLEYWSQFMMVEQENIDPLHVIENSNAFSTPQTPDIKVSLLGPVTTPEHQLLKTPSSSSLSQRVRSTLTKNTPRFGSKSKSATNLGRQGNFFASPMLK

Cytochrome P450 2C19 = Cytochrome P450 2C19 (Homo sapiens, UniProt P33261); assay: Cytochrome panel assay with activity outcomes. Panel member name: p450-cyp2c19 Compounds with AC50 equal or less than 10 uM are considered active; assay type: functional; settings: read-out: AC50
Cytochrome P450 3A4 = Cytochrome P450 3A4 (Homo sapiens, UniProt P08684);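 also: CYP3A4 tested as one member of a cytochrome P450 panel screen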
Cytochrome P450 2C9 = Cytochrome P450 2C9 (Homo sapiens, UniProt P11712)
[16] = Luminescence Cell-Based Dose Confirmation HTS to Identify Activators of 5'UTR Stem-Loop Driven Alpha-Synuclein mRNA Translation in H4 Neuroglioblastoma Cells. [Related pubchem assays: 1829 (Project Summary), 1814 (Primary HTS)]; assay type: functional
[17] = Luminescence Cell-Based Dose Response HTS to Identify Activators of Luciferase Translation or Activity in H4 […] Cells. [Related pubchem assays: 1829 (Project Summary), 1814 (Primary HTS)]; assay type: functional
H4 = assay: Luminescence Cell-Based Dose Response HTS to Identify Activators of 5'UTR Stem-Loop Driven Prion Protein mRNA Translation in H4 Neuroglioblastoma Cells. [Related pubchem assays: 1829 (Project Summary), 1814 (Primary HTS)]; assay type: functional; settings: Homo sapiens
[18] = cytotoxicity in HPDE-C7 cells, cell-based, fluorescence, HTS (AID 430); assay type: functional; settings: Homo sapiens
[19] = cytotoxicity in KRAS-transformed pancreatic duct cells, primary screen, cell-based, fluorescence, HTS (AID 431); assay type: functional; settings: Homo sapiens;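 also: cell line used: HPDE-C7K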
HeLa = assay: HeLa cell cytotoxicity, dose response, cytotoxicity control, ATP luminescence, cherry-pick samples (AID 687004); assay type: functional, cell-based; settings: Homo sapiens
[20] = growth suppression of PTEN-null colon cells, dose response, cell-based, HCT116 PTEN knockout (AID 1047); assay type: functional;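 also: HCT116 colon tumor cells with PTEN knocked out; cells exposed to compound for 60 hours before readout; potency for loss of cell viability measured by luminescence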
[21] = growth suppression of beta-catenin-knockout colon cells, dose response, cell-based, HCT116, human colon tumor (AID 1045); assay type: functional;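 also: HCT116 colon tumor cells with beta catenin knocked out; cells exposed to compound for 60 hours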
[22] = Shn3 3'UTR reporter inhibitors, dose response, cell-based, Clone20 osteoblasts, firefly luciferase, cherry-picked (AID 624132); assay type: functional;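 also: firefly luciferase luminescence from reporter carrying the Shn3 3'UTR in osteoblasts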
[23] = HepG2 cell cytotoxicity, dose response, cytotoxicity control for Shn3 inhibitor project, CellTiter-Glo, cherry-picked (AID 624134); assay type: functional, cell-based
[24] = control 3'UTR Renilla luciferase suppression, dose response, counter-screen for Shn3 inhibitor project, cell-based, Clone20-Shn3RL, cherry-picked (AID 624133); assay type: functional
Protein Wnt-3a = Protein Wnt-3a (Mus musculus, UniProt P27467); assay: Wnt3a-driven reporter signaling inhibition, dose response, selectivity assay for Gli-SUFU antagonist project, Wnt-LIGHT cells, luminescence (AID 651570); assay type: functional; settings: read-out: IC50_Mean;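 also: Wnt-LIGHT reporter cells stimulated with conditioned medium from Wnt3a-producing cells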
[25] = target: T4, COUP transcription factor 2 (Homo sapiens, UniProt P24468); assay: Luminescence-based cell-based high throughput dose response assay to identify inhibitors of COUP-TFII (NR2F2).; assay type: functional;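 also: HEK293 cells transiently cotransfected with COUP-TFII expression vector and reporter; luciferase reporter luminescence driven by COUP-TFII from the pX2-168 reporter plasmid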
T4 sequence (P24468 whole entry): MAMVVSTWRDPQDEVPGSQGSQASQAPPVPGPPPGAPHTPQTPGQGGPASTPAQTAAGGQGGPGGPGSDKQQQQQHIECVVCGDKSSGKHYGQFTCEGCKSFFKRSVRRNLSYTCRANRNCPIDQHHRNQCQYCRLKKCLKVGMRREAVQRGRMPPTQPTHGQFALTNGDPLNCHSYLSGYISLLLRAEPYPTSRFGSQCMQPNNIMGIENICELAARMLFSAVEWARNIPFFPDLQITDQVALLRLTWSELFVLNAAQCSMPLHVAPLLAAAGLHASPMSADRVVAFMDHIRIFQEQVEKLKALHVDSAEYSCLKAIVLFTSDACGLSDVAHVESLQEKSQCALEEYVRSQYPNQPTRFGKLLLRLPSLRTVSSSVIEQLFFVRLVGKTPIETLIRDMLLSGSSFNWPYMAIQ

Protein Wnt-3a, sequence (P27467 whole entry): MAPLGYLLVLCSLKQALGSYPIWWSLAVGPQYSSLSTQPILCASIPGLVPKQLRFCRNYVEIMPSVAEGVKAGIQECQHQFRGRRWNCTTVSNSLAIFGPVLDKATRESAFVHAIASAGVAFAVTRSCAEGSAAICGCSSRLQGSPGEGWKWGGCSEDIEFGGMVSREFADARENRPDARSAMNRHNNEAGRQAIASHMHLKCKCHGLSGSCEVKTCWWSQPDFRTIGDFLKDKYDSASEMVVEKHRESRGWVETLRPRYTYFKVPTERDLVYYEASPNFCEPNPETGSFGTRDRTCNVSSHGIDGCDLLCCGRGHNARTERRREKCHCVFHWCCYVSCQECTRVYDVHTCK
Cytochrome P450 3A4, sequence (P08684 whole entry): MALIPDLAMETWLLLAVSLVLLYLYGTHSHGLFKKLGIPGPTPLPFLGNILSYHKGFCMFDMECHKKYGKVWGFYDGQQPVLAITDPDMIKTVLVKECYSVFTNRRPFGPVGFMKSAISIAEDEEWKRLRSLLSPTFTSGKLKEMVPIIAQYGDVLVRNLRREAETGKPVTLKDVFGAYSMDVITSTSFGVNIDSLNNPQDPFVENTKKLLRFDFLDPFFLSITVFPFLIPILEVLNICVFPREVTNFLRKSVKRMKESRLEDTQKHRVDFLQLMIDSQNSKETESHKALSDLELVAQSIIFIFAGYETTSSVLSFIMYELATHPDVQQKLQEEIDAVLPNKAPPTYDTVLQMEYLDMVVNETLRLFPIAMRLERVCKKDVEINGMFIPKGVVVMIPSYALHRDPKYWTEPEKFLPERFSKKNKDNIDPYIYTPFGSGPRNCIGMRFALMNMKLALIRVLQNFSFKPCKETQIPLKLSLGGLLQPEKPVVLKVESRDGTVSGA
Cytochrome P450 2C9, sequence (P11712 whole entry): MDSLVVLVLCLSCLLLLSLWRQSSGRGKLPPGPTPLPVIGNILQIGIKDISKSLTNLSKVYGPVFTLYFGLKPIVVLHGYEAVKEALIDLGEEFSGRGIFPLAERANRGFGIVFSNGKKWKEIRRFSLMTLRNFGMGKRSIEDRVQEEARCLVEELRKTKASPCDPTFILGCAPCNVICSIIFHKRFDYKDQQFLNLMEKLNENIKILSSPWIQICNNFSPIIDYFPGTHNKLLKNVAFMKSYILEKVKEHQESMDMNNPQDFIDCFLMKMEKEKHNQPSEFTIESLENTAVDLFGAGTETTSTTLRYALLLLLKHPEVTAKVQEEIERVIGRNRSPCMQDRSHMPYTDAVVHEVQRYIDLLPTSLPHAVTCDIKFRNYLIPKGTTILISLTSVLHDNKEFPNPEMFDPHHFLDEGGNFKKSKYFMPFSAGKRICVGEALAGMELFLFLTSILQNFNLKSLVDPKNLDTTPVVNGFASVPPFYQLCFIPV
Mitogen-activated protein kinase 10, sequence (P53779 whole entry): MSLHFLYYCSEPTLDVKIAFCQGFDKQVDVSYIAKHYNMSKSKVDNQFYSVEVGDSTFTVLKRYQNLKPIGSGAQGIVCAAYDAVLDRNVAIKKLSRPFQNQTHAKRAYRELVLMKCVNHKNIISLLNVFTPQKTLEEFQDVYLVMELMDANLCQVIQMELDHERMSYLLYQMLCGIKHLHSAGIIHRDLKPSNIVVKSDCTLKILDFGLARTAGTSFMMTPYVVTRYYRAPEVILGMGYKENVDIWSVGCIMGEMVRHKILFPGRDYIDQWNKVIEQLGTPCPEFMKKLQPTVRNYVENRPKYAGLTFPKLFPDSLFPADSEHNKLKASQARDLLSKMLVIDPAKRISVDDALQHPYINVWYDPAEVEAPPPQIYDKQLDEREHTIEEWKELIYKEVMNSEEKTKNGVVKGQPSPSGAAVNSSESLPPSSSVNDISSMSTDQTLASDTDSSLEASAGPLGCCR
Cytochrome P450 2C19, sequence (P33261 whole entry): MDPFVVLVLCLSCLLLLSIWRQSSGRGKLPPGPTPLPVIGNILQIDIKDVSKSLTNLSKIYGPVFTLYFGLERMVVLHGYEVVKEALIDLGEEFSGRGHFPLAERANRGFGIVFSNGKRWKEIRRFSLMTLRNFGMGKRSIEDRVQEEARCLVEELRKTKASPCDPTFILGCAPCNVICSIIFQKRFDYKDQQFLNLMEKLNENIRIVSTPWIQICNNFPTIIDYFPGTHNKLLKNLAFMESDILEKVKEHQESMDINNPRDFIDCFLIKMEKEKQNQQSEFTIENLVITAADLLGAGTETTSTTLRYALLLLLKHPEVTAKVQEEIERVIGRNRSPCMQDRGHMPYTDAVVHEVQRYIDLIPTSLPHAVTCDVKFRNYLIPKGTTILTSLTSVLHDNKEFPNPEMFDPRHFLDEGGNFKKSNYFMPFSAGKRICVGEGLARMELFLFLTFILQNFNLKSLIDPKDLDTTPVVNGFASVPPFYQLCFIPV

## c1ccc(-c2ccc(C3=Nn4c(Cn5nnc6ccccc65)nnc4SC3)cc2)cc1
[1]
  CC50: > 40 µM (active)
[2]
  IC50: > 20 µM (inactive)

## OC[C@@H]1[C@H](c2ccc(C3=CCCC3)cc2)[C@H]2CN(CCC(F)(F)F)CCCCN12
[3]
  AC50: 1.2 µM (active)
[4]
  AC50: 18.7 µM (active)

## COCCN1Cc2cccc(C(=O)NCc3ccc4c(c3)OCO4)c2C1=O
[5]
  IC50: > 31 µM (not active)
fMet-Leu-Phe receptor
  Ki: > 66.7 µM (inactive)

## COc1ccccc1CN1C[C@@H]2N[C@H](C1)[C@@H]2c1ccc(-c2cccnc2)cc1
[6]
  AC50: 3.2 µM (active)
[7]
  AC50: 29.6 µM (active)
[3]
  AC50: 2.1 µM (active)
[8]
  AC50: 1.35 µM (active)
[4]
  AC50: 28.5 µM (active)
[9]
  AC50: 1.78 µM (active)

## C[C@H]1CN([C@@H](C)CO)C(=O)c2cccc(NC(=O)Nc3ccc(C(F)(F)F)cc3)c2O[C@H]1CN(C)C(=O)Nc1cccc2ccccc12
[10]
  AC50: 8.85 µM (active)

## CCNC1=NN=C(c2c[nH]c3ccccc23)CS1
[11]
  IC50: > 67.6 µM (inactive)
[12]
  EC50: > 67.6 µM (inactive)

## CC(C)CN1CCN(Cc2nc(C(C)C)cs2)CC1CCO (stereo not drawn)
[13]
  IC50: > 109 µM (inactive)
[14]
  IC50: > 83.3 µM (inactive)

## COc1ccc(C#Cc2ccc3c(c2)[C@H]2[C@H](CCN2Cc2ccncc2)[C@@H](CO)N3)cc1
[6]
  AC50: 1.95 µM (active)
[7]
  AC50: 62.5 µM (active)
[3]
  AC50: 2.38 µM (active)
[8]
  AC50: 1.16 µM (active)
[9]
  AC50: 1.67 µM (active)

## Cc1ccc(/C=N/Nc2ccc(Cl)c(C(=O)O)c2)s1
[15]
  IC50: 80.5 µM (active)
[11]
  IC50: > 67.6 µM (inactive)
[12]
  EC50: > 67.6 µM (inactive)

## N#Cc1c(N)n(-c2ccc(O)cc2)c2nc3ccccc3nc12
[13]
  IC50: > 109 µM (inactive)
[14]
  IC50: > 83.4 µM (inactive)

## Cc1cccc(S(=O)(=O)N(C)C[C@@H]2OCc3cn(nn3)CCCC(=O)N([C@@H](C)CO)C[C@H]2C)c1
[10]
  AC50: 34.4 µM (active)

## Cc1ccc(-c2cc(-c3ccccc3)no2)c(O)c1
[11]
  IC50: > 67.5 µM (inactive)
[12]
  EC50: > 67.5 µM (inactive)

## CCOc1ccccc1Oc1c(C)oc2cc(OC(=O)c3ccco3)ccc2c1=O
Cytochrome P450 2C19
  AC50: 3.16 µM (inconclusive)
fMet-Leu-Phe receptor
  Ki: 20.5 µM (inactive)
Cytochrome P450 3A4
  AC50: 20 µM (inconclusive)
Cytochrome P450 2C9
  AC50: inconclusive

## COCC(=O)Nc1ccc(Br)cc1C
[13]
  IC50: > 109 µM (inactive)
[14]
  IC50: > 83.3 µM (inactive)

## CC1(C)Cc2c(c(N3CCOCC3)nc3snc(N)c23)CO1
[16]
  EC50: 40.9 µM (active)
[17]
  EC50: > 120 µM (not active)
H4
  EC50: > 120 µM (not active)
[18]
  EC50: 7.52 µM (active)
[19]
  EC50: 7.17 µM (active)

## CC(NC1=NS(=O)(=O)c2ccccc21)C(=O)NCCCc1ccccc1 (stereo not drawn)
[10]
  AC50: 11.4 µM (active)

## CCC(CCC(=O)Nc1cccc(C(=O)O)c1)C(=O)O (stereo not drawn)
fMet-Leu-Phe receptor
  Ki: > 66.7 µM (inactive)

## C[C@H]1CN([C@@H](C)CO)C(=O)c2c(c3ccccc3n2C)-c2ccccc2CO[C@@H]1CN(C)Cc1cccc2c1OCCCO2
[3]
  AC50: 4.74 µM (active)
[4]
  AC50: 29.8 µM (active)

## COc1ccc2c3c([nH]c2c1)[C@H](CO)N(C(=O)Nc1ccc(F)cc1)CC31CCN(S(=O)(=O)c2cccc(F)c2)CC1
[6]
  AC50: 1.22 µM (active)
[7]
  AC50: 22 µM (active)
[3]
  AC50: 0.883 µM (active)
[8]
  AC50: 0.751 µM (active)
[9]
  AC50: 0.103 µM (active)

## COC(=O)C1=C(C)N(Cc2ccc(Br)cc2)C(=S)NC1c1cccc(Br)c1 (stereo not drawn)
HeLa
  AC50: 38.1 µM (active)

## CCCCOC(=O)c1[nH]c2c(c1C)C(=O)CC(c1cc(OC)c(OC)c(OC)c1)C2 (stereo not drawn)
[20]
  EC50: 79.5 µM (active)
[21]
  EC50: 58.8 µM (active)
[22]
  AC50: 1.35 µM (active)
[23]
  AC50: 62 µM (active)
[24]
  AC50: 3.74 µM (active)
Protein Wnt-3a
  IC50: 8.48 µM (active)
[25]
  IC50: 7.91 µM (active)
